Legend:
HepG2 cells [1] = experiment: mRNA expression (PCR) after oleic acid treatment, HepG2 cells; assay type: cell-based, human; conditions: oleic acid 72 hours
Excerpt: (§1) It is known that, in the liver of obese mice, the expression and activity of PPARγ2 are increased, and the expression of a target gene thereof is increased. To form such an obese environment in an in vitro experiment, mRNA expression amounts of PPARγ2, and 14-3-3β and 14-3-3γ were checked through treatment with oleic acid (OA), which is a type of fatty acid.
(§2) HepG2 cells and primary mouse hepatocytes were separately seeded in a 6-well plate at a density of 4x10^5 cells per each well, and then treated with 200 μM of oleic acid (OA) for 72 hours. For mRNA extraction, the corresponding cells were lysed with 1 ml/well of TRIzol (Invitrogen), 200 μl of chloroform was added thereto and mixed well, the resultant cells were maintained at room temperature for 5 minutes and then centrifuged at 12,000×g and 4° C. for 15 minutes, the obtained supernatant was mixed with 500 μl of isopropanol and then put on ice for 10 minutes, the resulting supernatant was centrifuged at 12,000×g and 4° C. for 15 minutes to remove a supernatant, and then pellets were dissolved with tertiary distilled water treated with diethyl pyrocarbonate (DEPC). 2 μg of mRNA was synthesized into cDNA using a Superscript First Strand cDNA Synthesis Kit (Bioneer, Daejeon, South Korea) and the synthesized cDNA as a template was amplified through polymerase chain reaction (PCR) using primers specific to PPARγ2, 14-3-3β, 14-3-3γ, SREBP-1c, SCD-1, ACC, FABP, FAT/CD36, and (β-actin of humans, and was amplified through real-time PCR using primers specific to PPARγ2, 14-3-3β, 14-3-3γ, SREBP-1c, FAT/CD36, and GAPDH of mice. β-actin and GAPDH were used as controls to see whether mRNAs of the respective cells were compared in the same amount.

[2] = test system: primary mouse hepatocytes; experiment: mRNA expression (real-time PCR) after oleic acid treatment, primary mouse hepatocytes; assay type: cell-based; conditions: oleic acid 72 hours
Excerpt: as §1, §2

PPARγ2 and 14-3-3β = target: T1, PPARγ2 and 14-3-3β (Homo sapiens, UniProt P37231); experiment: GST-pull down assay, PPARγ2 / 14-3-3β binding with oleic acid treatment (HEK-293T); conditions: 200 μM oleic acid 72 hours; FIG. 8A
T1 construct: expressed in transfected cells; host or cells: HEK-293T
T1 sequence (P37231 1-505): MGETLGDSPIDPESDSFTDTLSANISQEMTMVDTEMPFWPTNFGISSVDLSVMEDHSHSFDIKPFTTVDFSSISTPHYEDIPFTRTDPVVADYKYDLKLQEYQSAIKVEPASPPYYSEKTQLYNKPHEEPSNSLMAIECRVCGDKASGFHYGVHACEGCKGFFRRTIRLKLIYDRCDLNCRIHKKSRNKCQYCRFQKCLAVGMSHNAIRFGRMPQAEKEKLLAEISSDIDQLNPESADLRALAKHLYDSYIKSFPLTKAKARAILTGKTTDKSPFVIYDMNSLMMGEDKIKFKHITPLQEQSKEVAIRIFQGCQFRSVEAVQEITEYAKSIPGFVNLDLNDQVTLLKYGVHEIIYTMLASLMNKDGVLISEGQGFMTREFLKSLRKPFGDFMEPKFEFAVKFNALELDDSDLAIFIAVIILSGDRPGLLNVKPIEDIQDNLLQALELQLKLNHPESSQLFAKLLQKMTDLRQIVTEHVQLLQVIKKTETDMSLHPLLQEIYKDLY
T1 sequence (P31946 1-246 partner): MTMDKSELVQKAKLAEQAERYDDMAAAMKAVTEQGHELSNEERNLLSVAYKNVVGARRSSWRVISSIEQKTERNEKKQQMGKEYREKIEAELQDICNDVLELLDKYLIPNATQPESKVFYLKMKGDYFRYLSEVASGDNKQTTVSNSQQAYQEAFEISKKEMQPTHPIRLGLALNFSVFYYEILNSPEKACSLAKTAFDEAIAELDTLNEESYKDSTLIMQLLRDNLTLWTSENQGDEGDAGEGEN
Procedure: (§3) HEK-293T cells were seeded in a 100 mm plate at a density of 2×10^6 cells per each well, and then transfected with mGST-PPARγ2DNA (4 μg) and HA-14-3-3β DNA (4 μg) or HA-14-3-3γ DNA (4 μg) using an E-fection plus reagent (Lugen). A ratio of DNA to the E-fection plus reagent was 1:2, and this method was performed according to a manufacturer's manual. After transfection, the cells were treated with 200 μM of oleic acid (OA) for 72 hours, washed with ice-cold PBS, and lysed with 500 μl/well of a lysis buffer (150 mM NaCl, 1 mM EDTA, 1% Nonidet P-40, 5% glycerol, 25 mM tris-HCl, pH 7.5, protease inhibitor added), the lysed cells were centrifuged at 10,000×g and 4° C. for 10 minutes to extract proteins, 1,000 μg of the proteins was reacted with 20 μl of glutathione Sepharose 4B beads (GE Healthcare, Buckinghamshire, UK) for 6 hours, washing of the beads with 1 ml of ice-cold PBS was repeated 5 times, the resulting beads were boiled at 100° C. for 10 minutes, and the proteins were separated on a 10% SDS-PAGE gel and identified using each of the antibodies (GST, HA: Santa Cruz) by western blotting, and all antibodies were used in a ratio of 1:3000.

PPARγ2 and 14-3-3γ = target: T2, PPARγ2 and 14-3-3γ (Homo sapiens, UniProt P37231); experiment: GST-pull down assay, PPARγ2 / 14-3-3γ binding with oleic acid treatment (HEK-293T); conditions: 200 μM oleic acid 72 hours; FIG. 8B
T2 construct: expressed in transfected cells; host or cells: HEK-293T
T2 sequence (P37231 1-505): T1 sequence (P37231 1-505)
Procedure: as §3

HepG2 cells [3] = experiment: Oil Red-O lipid accumulation, HepG2 cells; assay type: cell-based; conditions: concentration-dependent treatment of oleic acid, FIG. 9A
Procedure: (§4) HepG2 cells and primary mouse hepatocytes were separately seeded in a 6-well plate at a density of 4×10^5 cells per each well, and then transfected with GFP-14-3-3β DNA (1 μg) or GFP-14-3-3γ DNA (1 μg) and si-14-3-3β (10 μM, Santa Cruz) or si-14-3-3γ (10 μM, Santa Cruz) using an E-fection plus reagent (Lugen). A ratio of DNA to the E-fection plus reagent was 1:2, and this method was performed according to a manufacturer's manual. […] The stained cells were bleached with 1 ml of isopropanol and analyzed at a wavelength of 550 nm using a DU530 spectrophotometer (Beckman Instruments, Palo Alto, Calif.).

[4] = test system: primary mouse hepatocytes; experiment: Oil Red-O lipid accumulation, primary mouse hepatocytes; assay type: cell-based; conditions: concentration-dependent treatment of oleic acid, FIG. 9A
Procedure: as §4

[5] = test system: primary mouse hepatocytes; experiment: Triglyceride colorimetric assay, primary mouse hepatocytes; assay type: cell-based; conditions: primary mouse hepatocytes treated with oleic acid (200 μM, 72 hours); FIG. 10A
Procedure: A triglyceride (neutral fat) is a type of fatty acid and is used as an index of a fat content. A biochemical lipid test was carried out by measuring an amount of triglycerides. HepG2 cells and primary mouse hepatocytes were separately seeded in a 6-well plate at a density of 4×10^5 cells per each well, and then transfected with GFP-14-3-3β DNA (1 μg) or GFP-14-3-3γ DNA (1 μg) and si-14-3-3β (10 μM, Santa Cruz) or si-14-3-3γ (10 μM, Santa Cruz) using an E-fection plus reagent (Lugen). A ratio of DNA to the E-fection plus reagent was 1:2, and this method was performed according to a manufacturer's manual. After transfection, the cells were treated with 200 μM of oleic acid (OA) for 72 hours, and the amount of triglycerides was measured using a triglyceride colorimetric assay kit (Cayman Chemical). The corresponding cells were washed with ice-cold PBS and then scraped using a standard diluent assay reagent, the scrapping process was repeated using a sonicator 20 times to lyse the cells, and the lysed cells were reacted with an enzyme buffer solution for 15 minutes, followed by measurement using an ELISA reader (Bio-Rad Laboratories, Inc) at a wavelength of 550 nm.

binding between PPARγ2 and 14-3-3β (PPARγ2 and 14-3-3β): increased
binding between PPARγ2 and 14-3-3γ (PPARγ2 and 14-3-3γ): reduced
SMILES: CCCCCCCC/C=C\CCCCCCCC(=O)O [oleic acid]
mRNA expression amount of 14-3-3β (HepG2 cells [1]; FIG. 6A): no changes
mRNA expression amount of 14-3-3γ (HepG2 cells [1]; FIG. 6A): no changes
mRNA expression of PPARγ2 (HepG2 cells [1]; FIG. 6A): increased in an oleic acid concentration-dependent manner
mRNA expression of lipid metabolism-associated genes (PPARγ2 target genes) (HepG2 cells [1]; FIG. 6C): also increased in an oleic acid concentration-dependent manner
mRNA expression amount of 14-3-3β ([2]; FIG. 6B): no changes
mRNA expression amount of 14-3-3γ ([2]; FIG. 6B): no changes
mRNA expression of PPARγ2 ([2]; FIG. 6B): increased in an oleic acid concentration-dependent manner
mRNA expression of lipid metabolism-associated genes (PPARγ2 target genes) ([2]; FIG. 6D): also increased in an oleic acid concentration-dependent manner
lipid accumulation (Oil Red-O) (HepG2 cells [3]): lipid accumulation was increased
lipid accumulation (Oil Red-O) [4]: lipid accumulation was increased
triglyceride accumulation [5]: triglyceride accumulation was increased

Source: US20180207294A1, “NON-ALCOHOLIC FATTY LIVER REGULATING FACTOR 14-3-3 PROTEIN” (Korea University Research and Business Foundation, priority 2015, published 2018)
